In ChEMBL document CHEMBL5104127, “Design and preparation of N-linked hydroxypyridine-based APJ agonists” (Bioorg Med Chem Lett, 2022):

Experiments:
Apelin receptor = target: T1, Apelin receptor (Homo sapiens, UniProt P35414); assay: Agonist activity at human APJ receptor expressed in HEK293 cells assessed as compound stimulated inhibition of forskolin stimulated cAMP production incubated for 30 mins and measured by fluorescence based assay; format: functional, cell-based
T1 sequence (P35414 whole entry): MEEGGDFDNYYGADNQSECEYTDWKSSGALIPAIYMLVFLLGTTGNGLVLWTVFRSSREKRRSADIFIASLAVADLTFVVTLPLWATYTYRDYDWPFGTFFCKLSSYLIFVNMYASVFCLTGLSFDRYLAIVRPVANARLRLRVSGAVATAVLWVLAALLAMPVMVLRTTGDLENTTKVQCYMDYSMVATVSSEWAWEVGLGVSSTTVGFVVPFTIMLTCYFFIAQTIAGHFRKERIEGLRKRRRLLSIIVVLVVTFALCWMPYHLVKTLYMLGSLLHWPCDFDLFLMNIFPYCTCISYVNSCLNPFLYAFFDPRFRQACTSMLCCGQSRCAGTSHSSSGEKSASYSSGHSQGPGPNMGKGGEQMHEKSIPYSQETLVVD

[1] = Metabolic stability in human liver microsomes incubated for 10 mins and assessed as compound remaining; format: ADME, Microsome; details: read-out: Stability
[2] = Metabolic stability in rat liver microsomes incubated for 10 mins and assessed as compound remaining; format: ADME, Microsome; details: read-out: Stability
[3] = Cmax in rat at 1 mg/kg, po; format: ADME, organism-based; set-up: dose 1 mg/kg, route po; details: in vivo
[4] = AUC in rat at 1 mg/kg, po; format: ADME, organism-based; set-up: dose 1 mg/kg, route po; details: in vivo

SMILES: CCCCc1nc(O)c(C(=O)N2CC[C@H](c3ccccc3)C2)c(O)c1N(C)c1cccc(OC)c1
- EC50 (Apelin receptor): > 75 nM

SMILES: CCCCc1nc(O)c(C(=O)N2CCC(c3ncc(Cl)cc3F)C2)c(O)c1N(CC)c1ccccc1 (stereo unspecified)
- EC50 (Apelin receptor): 0.24 nM
- remaining at 10 min [1]: 53%
- remaining at 10 min [2]: 12%

SMILES: CCN(c1ccccc1)c1c(CC2CC2)nc(O)c(C(=O)N2CCC(c3ncc(F)cc3F)C2)c1O (stereo unspecified)
- EC50 (Apelin receptor): 13 nM

SMILES: CCCCc1nc(O)c(C(=O)N2CCC(c3ccc(Cl)cn3)C2)c(O)c1N(CC)c1ccccc1 (stereo unspecified)
- EC50 (Apelin receptor): 0.28 nM
- remaining at 10 min [1]: 62%
- remaining at 10 min [2]: 26%

SMILES: CCCCc1nc(O)c(C(=O)N2CC[C@H](c3ccccc3)C2)c(O)c1N1CCCc2ccccc21
- EC50 (Apelin receptor): > 150 nM

SMILES: CCCCc1nc(O)c(C(=O)N2CC[C@H](c3ccccc3)C2)c(O)c1N(c1ccccc1)C(C)C
- EC50 (Apelin receptor): 35 nM

SMILES: CCCCc1nc(O)c(C(=O)N2CCC(c3ncc(F)cc3F)C2)c(O)c1N(CC)c1ccccc1 (stereo unspecified)
- EC50 (Apelin receptor): 0.24 nM

SMILES: CCCCc1nc(O)c(C(=O)N2CC[C@H](c3ccccc3)C2)c(O)c1N(C)c1ccc(OC)cc1
- EC50 (Apelin receptor): 62 nM

SMILES: CCCCc1nc(O)c(C(=O)N2CC[C@H](c3ccccc3)C2)c(O)c1N(C)c1ccccc1
- EC50 (Apelin receptor): 38 nM

SMILES: CCCCc1nc(O)c(C(=O)N2CCC(c3ccccc3F)C2)c(O)c1N(CC)c1ccccc1 (stereo unspecified)
- EC50 (Apelin receptor): 8.4 nM

SMILES: CCCCc1nc(O)c(C(=O)N2CC[C@H](c3ccccc3)C2)c(O)c1N(CC)c1ccccc1
- EC50 (Apelin receptor): 13 nM
- remaining at 10 min [1]: 27%
- remaining at 10 min [2]: 7%

SMILES: CCCCc1nc(O)c(C(=O)N2CCN(Cc3cccc(Cl)c3Cl)CC2)c(O)c1N(CC)c1ccccc1
- EC50 (Apelin receptor): 16 nM

SMILES: CCN(c1ccccc1)c1c(-c2cccc(C)c2)nc(O)c(C(=O)N2CCC(c3ncc(F)cc3F)C2)c1O (stereo unspecified)
- EC50 (Apelin receptor): 0.1 nM
- remaining at 10 min [1]: 57%
- remaining at 10 min [2]: 7%

SMILES: CCCCc1nc(O)c(C(=O)N2CC[C@H](c3ccccc3)C2)c(O)c1N1CCc2ccccc21
- EC50 (Apelin receptor): 21 nM

SMILES: CCCCc1nc(O)c(C(=O)N2CC[C@H](c3ccccc3)C2)c(O)c1N(C)c1ccccc1OC
- EC50 (Apelin receptor): > 75 nM

SMILES: CCN(c1ccccc1)c1c(-c2ccn(C)n2)nc(O)c(C(=O)N2CCC(c3ncc(F)cc3F)C2)c1O (stereo unspecified)
- EC50 (Apelin receptor): 0.3 nM
- remaining at 10 min [1]: 87%
- remaining at 10 min [2]: 82%
- Cmax [3]: 5.2 µM
- AUC [4]: 4.8 µM·h

SMILES: CCCCc1nc(O)c(C(=O)N2CC[C@@H](c3ccccc3)C2)c(O)c1N(CC)c1ccccc1
- EC50 (Apelin receptor): 12 nM
- remaining at 10 min [1]: 56%
- remaining at 10 min [2]: 17%
